Measured values from US10450573B2, “Compositions and methods for regulation of gene expression with, and detection of, folinic acid and folates” (The Board of Trustees of the Leland Stanford Junior …, priority 2014, dated 2019).

Experiments:
[1] = cited from earlier work; for concentration that can accumulate in human blood plasma: intravenous infusion
[2] = Surface plasmon resonance aptamer binding assay, (6R)-folinic acid; details: for ka, (6R)-Folinic Acid / kd, (6R)-Folinic Acid / Kd: SPR, 25° C., selection buffer pH 7.4, 5 mM MgCl2; for ka, (6R)-Folinic Acid / kd, (6R)-Folinic Acid: 1:1 binding model; for Selectivity: between (6R)- and (6S)-folinic acid diastereomers
Protocol: (§1) Surface plasmon resonance characterization of aptamer binding properties. Nucleic acid aptamer preparation. RNA aptamers were prepared by PCR amplification of DNA template sequences (Table 4, Integrated DNA Technologies, Coralville, Iowa) using forward and reverse primers Biacore-fwd and Biacore-rev, respectively, followed by transcription of the PCR product using the MEGAshortscript T7 transcription kit (Life Technologies) and purification of the transcription product using the RNA Clean & Concentrator kit (Zymo Research, Irvine, Calif.), according to the manufacturers' instructions. Aptamers were resuspended in selection buffer, denatured at 65° C. for 5 min, and cooled to room temperature directly before use.
(§2) Sensor chip surface generation. Experiments were performed on a Biacore X100 instrument (GE Healthcare) at 25° C. A CM5 sensor chip (GE Healthcare) was equilibrated with HBS-N buffer. The DNA linker strand (5′-AmMC6-[…]) (Integrated DNA Technologies) (SEQ ID NO:133), with an amino modified 6-carbon linker on the 5′ end, was immobilized to the chip surface. The carboxymethylated dextran surface of the CM5 chip was activated for 7 min at a flow rate of 10 μL/min using a 1:1 volume ratio of 0.4 M 1-ethyl-3-(3-dimethylaminopropyl) carbodiimide (GE Healthcare) and 0.1 M N-hydroxysuccinimide (GE Healthcare). A molar ratio of 1:30 of DNA strand to hexadecyltrimethylammonium bromide (Sigma-Aldrich, St. Louis, Mo.) was diluted in 10 mM HEPES buffer (Sigma-Aldrich) to a final concentration of 20 μM and 0.6 mM, respectively, and injected over the activated surface for 10 min at a flow rate of 5 μL/min. Excess activated groups were blocked by an injection of 1 M ethanolamine (GE Healthcare), pH 8.5, for 7 min at a flow rate of 10 μL/min. The immobilization reaction was performed sequentially on both flow cells (FC1, FC2) and yielded approximately 4,000 RU of the DNA strand.
(§3) Aptamer binding assay. The Biacore X100 instrument was primed three times with running buffer prior to all binding assays. For each assay, three startup cycles were performed to stabilize the sensorgram baseline. For each startup cycle, the aptamer (˜40-70 ng/μL, ˜3 μM) was captured onto the sample flow cell (FC2) for 40 s at a flow rate of 5 μL/min. 25 mM NaOH (GE Healthcare) was injected for 30 s at a flow rate of 30 μL/min over both flow cells to regenerate the sensor surface. A dilution series of (6R)- or (6S)-folinic acid (Schircks Laboratories, Jona, Switzerland) was prepared in selection buffer and filtered through a 0.2 μm membrane (Pall Corporation, Port Washington, N.Y.). For each concentration sample, the aptamer was captured onto the sample flow cell (FC2) for 40 s at a flow rate of 5 μL/min, the folinic acid solution was injected over both flow cells at a flow rate of 30 μL/min to monitor target association, and selection buffer was injected over both flow cells at a flow rate of 30 μL/min to monitor target dissociation. Association and dissociation phase lengths used were chosen based on time needed to reach equilibrium. Aptamer and folinic acid were removed from the sensor surface by injecting 25 mM NaOH for 30 s at a flow rate of 30 μL/min over both flow cells.
(§4) Data processing and analysis were performed using Biacore X100 Evaluation Software version 2.0 (GE Healthcare). A double-referencing method was performed to process all datasets. Data from the sample flow cell (FC2) were referenced first by subtracting data from the reference flow cell (FC1) to correct for bulk refractive index changes, nonspecific binding, injection noise, matrix effects, and baseline drift. Reference-subtracted data (FC2−FC1) were double-referenced with a blank injection of running buffer to account for any systematic drift over the course of the injection. Double-referenced data were fit to a 1:1 binding model for kinetic analysis or steady-state affinity model for thermodynamic analysis. […]

[3] = Surface plasmon resonance aptamer binding assay, (6S)-folinic acid; details: SPR, 25° C., selection buffer pH 7.4, 5 mM MgCl2; for ka, (6S)-Folinic Acid / kd, (6S)-Folinic Acid: 1:1 binding model
Protocol: as §1, §2, §3, §4

[4] = SPR binding to (6R,S)-5-methyl-5,6,7,8-tetrahydrofolic acid; details: ligand is mixture of (6R) and (6S) diastereomers; for Kd: read-out: KD, (6R,S)-5-methyl-THF
[5] = SPR binding to (6R,S)-5-formyl-5,6,7,8-tetrahydropteroic acid; details: ligand is mixture of (6R) and (6S) diastereomers; for Kd: read-out: KD, (6R,S)-5-formyl-THPteroic Acid
[6] = test system: GFP expression; test: Gene-regulatory activity of ribozyme-based switches in yeast (GFP, flow cytometry); type: cell-based, Saccharomyces cerevisiae; details: normalized to sTRSV Contl
Protocol: Plasmid and strain construction. Standard molecular biology cloning techniques were used to construct all plasmids. DNA synthesis was performed by Integrated DNA Technologies (Coralville, Iowa) or the Protein and Nucleic Acid Facility (Stanford, Calif.). All enzymes, including restriction enzymes and ligases, were obtained through New England Biolabs (Ipswich, Mass.). Ligation products were electroporated with a GenePulser XCell (Bio-Rad, Hercules, Calif.) into an E. coli DH10B strain (Invitrogen, Carlsbad, Calif.), where cells harboring cloned plasmids were maintained in Luria-Bertani media containing 50 μg/mL ampicillin (EMD Chemicals, Philadelphia, Pa.). […]
The two-color screening plasmid pCS1748; single-color plasmids harboring GFP (pCS1585) and mCherry (pCS1749) for use as compensation controls; and no-color plasmid pCS4, containing no fluorescence reporter gene, was used as the negative-control construct. […]
Cell sorting screen for functional ligand-responsive RNA switches. […] Transformation efficiencies were determined by plating serial dilutions of the transformants, and transformed cells were propagated in SC-URA media for FACS.
Two-color FACS-based screen. […] GFP was excited at 488 nm and measured with a splitter of 505 nm and bandpass filter of 525/50 nm. mCherry was excited at 532 nm and measured with a splitter of 600 nm and a bandpass filter of 610/20 nm. […]

Row | Molecule | plasma concentration compared to the (6S) diastereomer ([1]; in vivo) | plasma half-life compared to the (6S) diastereomer ([1]; in vivo) | concentration that can accumulate in human blood plasma [1] | ka, (6R)-Folinic Acid [2] | kd, (6R)-Folinic Acid [2] | Kd [2] | Selectivity [2] | ka, (6S)-Folinic Acid [3] | kd, (6S)-Folinic Acid [3] | Kd [3] | Kd [4] | ka, (6R,S)-5-formyl-THPteroic Acid [5] | kd, (6R,S)-5-formyl-THPteroic Acid [5] | Kd [5] | ka, (6R,S)-5-methyl-THF [4] | kd, (6R,S)-5-methyl-THF [4] | normalized GFP expression ([6]; absence of theophylline) | normalized GFP expression ([6]; presence of 5 mM theophylline)
1 | Nc1nc2c(c(=O)[nH]1)N(C=O)[C@H](CNc1ccc(C(=O)N[C@@H](CCC(=O)O)C(=O)O)cc1)CN2 [(6R)-folinic acid] | ≤ 18 fold | up to 15 fold | up to 77.6 μM |  |  |  |  |  |  |  |  |  |  |  |  |  |  | 
2 | tFA8-16: truncated (6R)-FA specific RNA aptamer, SEQ ID NO: 22 (CUCCUUCCGGUGACCUGGACGUUAUUUCCGGCCGAAGGGAG; unmodified RNA) |  |  |  | 33000 M⁻¹ s⁻¹ | 0.0602 s⁻¹ | 1.82 µM | 684 | 682 M⁻¹ s⁻¹ | 0.85 s⁻¹ | 1250 µM |  |  |  |  |  |  |  | 
3 | tFA10-7: truncated (6S)-FA specific RNA aptamer, SEQ ID NO: 24 (ACGGCGAAGAGUCAAAGCAUCCCCUGCGAAAGCAGGGCCCGU; unmodified RNA) |  |  |  |  |  | 74.4 µM | 515 | 53600 M⁻¹ s⁻¹ | 0.00775 s⁻¹ | 0.144 µM | 81.8 µM | 35200 M⁻¹ s⁻¹ | 0.00697 s⁻¹ | 0.198 µM |  |  |  | 
4 | tFA8-4: truncated (6R)-FA specific RNA aptamer, SEQ ID NO: 18 (GCUUGGCGUUGCGUGGUACGUUAUAUUCCGGCCAAGC; unmodified RNA) |  |  |  | 269000 M⁻¹ s⁻¹ | 0.00515 s⁻¹ | 0.0192 µM | 260 | 21100 M⁻¹ s⁻¹ | 0.105 s⁻¹ | 4.98 µM | 6.29 µM | 135000 M⁻¹ s⁻¹ | 0.00494 s⁻¹ | 0.0366 µM | 33500 M⁻¹ s⁻¹ | 0.211 s⁻¹ |  | 
5 | Nc1nc(=O)c2c([nH]1)NC[C@H](CNc1ccc(C(=O)N[C@@H](CCC(=O)O)C(=O)O)cc1)N2C=O [(6S)-folinic acid] |  |  | ≤ 7.95 µM |  |  |  |  |  |  |  |  |  |  |  |  |  |  | 
6 | tFA8-11: truncated (6R)-FA specific RNA aptamer, SEQ ID NO: 20 (UGCAGUGCUUGGUACGUUAUAUUCAGCUGCA; unmodified RNA) |  |  |  | 116000 M⁻¹ s⁻¹ | 0.00468 s⁻¹ | 0.0405 µM | 855 | 6560 M⁻¹ s⁻¹ | 0.227 s⁻¹ | 34.6 µM | 13.6 µM | 750000 M⁻¹ s⁻¹ | 0.00568 s⁻¹ | 0.0757 µM | 14300 M⁻¹ s⁻¹ | 0.195 s⁻¹ |  | 
7 | tFA6-8: truncated (6R)-FA specific RNA aptamer, SEQ ID NO: 21 (UUCCCGUCAGGUACGUUAUAUUCGGGGGA; unmodified RNA) |  |  |  | 77900 M⁻¹ s⁻¹ | 0.0176 s⁻¹ | 0.225 µM | 567 | 2330 M⁻¹ s⁻¹ | 0.297 s⁻¹ | 128 µM |  |  |  |  |  |  |  | 
8 | L2b8: parent theophylline-responsive ribozyme switch, SEQ ID NO: 43 (nucleic acid, listed as DNA, chemistry not fully specified) AAACAAACAAAGCTGTCACCGGATGTGCTTTCCGGTCTGATGAGTCCGTTGTCCATACCAGCATCGTCTTGATGCCCTTGGCAGGGACGGGACGGAGGACGAAACAGCAAAAAGAAAAATAAAAA |  |  |  |  |  |  |  |  |  |  |  |  |  |  |  |  | ~10.8% | ~36.7%
9 | tFA8-18: truncated (6S)-FA specific RNA aptamer, SEQ ID NO: 23 (nucleic acid, unmodified RNA) CUCGUCAAUGCAUAUGUAACGUUAACGGCGCUACCUGUACAAUGCACGUUCCGAGCGCCCGGAGACGAG |  |  |  | 94 M⁻¹ s⁻¹ | 0.00355 s⁻¹ | 37.7 µM | 600 | 36100 M⁻¹ s⁻¹ | 0.00227 s⁻¹ | 0.0628 µM | 447 µM | 53200 M⁻¹ s⁻¹ | 0.00633 s⁻¹ | 0.119 µM |  |  |  | 
